Key:
Type in all cases: functional
OVCAR-8 = assay: Growth inhibition of human OVCAR8 cells assessed as cell growth at 100 uM after 48 hrs by SRB assay relative to control; details: OVCAR-8, 48 h, read-out: Activity
LOX IMVI = assay: Growth inhibition of human LOXIMVI cells assessed as cell growth at 10 uM after 48 hrs by SRB assay relative to control; details: read-out: Activity
UACC-62 = assay: Growth inhibition of human UACC62 cells assessed as cell growth at 10 uM after 48 hrs by SRB assay relative to control; details: UACC-62, 48 h, read-out: Activity
PC-3 = assay: Cytotoxicity against human PC3 cells assessed as growth inhibition after 48 hrs by SRB assay; details: PC-3, 48 h
SNB-19 [1] = assay: Growth inhibition of human SNB19 cells assessed as cell growth at 1 uM after 48 hrs by SRB assay relative to control; details: SNB-19, 48 h, read-out: Activity
MOLT-4 [2] = assay: Growth inhibition of human MOLT4 cells assessed as cell growth at 1 uM after 48 hrs by SRB assay relative to control; details: MOLT-4, 48 h, read-out: Activity
OVCAR-5 = assay: Cytotoxicity against human OVCAR5 cells assessed as growth inhibition after 48 hrs by SRB assay; details: OVCAR-5, 48 h
CAKI-1 [3] = assay: Cytotoxicity against human Caki1 cells assessed as growth inhibition after 48 hrs by SRB assay; details: CAKI-1, 48 h
SK-MEL-2 [4] = assay: Growth inhibition of human SK-MEL-2 cells assessed as cell growth at 100 uM after 48 hrs by SRB assay relative to control; details: SK-MEL-2, 48 h, read-out: Activity
SF-268 [5] = assay: Growth inhibition of human SF268 cells assessed as cell growth at 0.01 uM after 48 hrs by SRB assay relative to control; details: SF-268, 48 h, read-out: Activity
T47D = assay: Growth inhibition of human T47D cells assessed as cell growth at 1 uM after 48 hrs by SRB assay relative to control; details: read-out: Activity
SN12C = assay: Growth inhibition of human SN12C cells assessed as cell growth at 0.1 uM after 48 hrs by SRB assay relative to control; details: read-out: Activity
OVCAR-4 [6] = assay: Cytotoxicity against human OVCAR4 cells assessed as growth inhibition after 48 hrs by SRB assay; details: OVCAR-4, 48 h
UO-31 = assay: Growth inhibition of human UO31 cells assessed as cell growth at 1 uM after 48 hrs by SRB assay relative to control; details: UO-31, 48 h, read-out: Activity
IGROV-1 = assay: Growth inhibition of human IGROV1 cells assessed as cell growth at 10 uM after 48 hrs by SRB assay relative to control; details: IGROV-1, 48 h, read-out: Activity
M14 = assay: Growth inhibition of human M14 cells assessed as cell growth at 0.01 uM after 48 hrs by SRB assay relative to control; details: M14, 48 h, read-out: Activity
NCI-H23 = assay: Growth inhibition of human NCI-H23 cells assessed as cell growth at 100 uM after 48 hrs by SRB assay relative to control; details: NCI-H23, 48 h, read-out: Activity
SNB-75 [7] = assay: Growth inhibition of human SNB75 cells assessed as cell growth at 100 uM after 48 hrs by SRB assay relative to control; details: SNB-75, 48 h, read-out: Activity
SF-268 [8] = assay: Cytotoxicity against human SF268 cells assessed as growth inhibition after 48 hrs by SRB assay; details: SF-268, 48 h
A549 = assay: Growth inhibition of human A549/ATCC cells assessed as cell growth at 100 uM after 48 hrs by SRB assay relative to control; details: A549, 48 h, read-out: Activity
SK-MEL-2 [9] = assay: Growth inhibition of human SK-MEL-2 cells assessed as cell growth at 10 uM after 48 hrs by SRB assay relative to control; details: SK-MEL-2, 48 h, read-out: Activity
HOP-92 = assay: Growth inhibition of human HOP92 cells assessed as cell growth at 0.1 uM after 48 hrs by SRB assay relative to control; details: HOP-92, 48 h, read-out: Activity
SR = assay: Growth inhibition of human SR cells assessed as cell growth at 1 uM after 48 hrs by SRB assay relative to control; details: read-out: Activity
SNB-75 [10] = assay: Growth inhibition of human SNB75 cells assessed as cell growth at 10 uM after 48 hrs by SRB assay relative to control; details: SNB-75, 48 h, read-out: Activity
MDA-MB-231 = assay: Growth inhibition of human MDA-MB-231/ATCC cells assessed as cell growth at 0.01 uM after 48 hrs by SRB assay relative to control; details: MDA-MB-231, 48 h, read-out: Activity
CAKI-1 [11] = assay: Growth inhibition of human Caki1 cells assessed as cell growth at 10 uM after 48 hrs by SRB assay relative to control; details: CAKI-1, 48 h, read-out: Activity
HCT-15 = assay: Growth inhibition of human HCT15 cells assessed as cell growth at 100 uM after 48 hrs by SRB assay relative to control; details: HCT-15, 48 h, read-out: Activity
SNB-19 [12] = assay: Cytotoxicity against human SNB19 cells assessed as growth inhibition after 48 hrs by SRB assay; details: SNB-19, 48 h
MDA-MB-468 = assay: Growth inhibition of human MDA-MB-468 cells assessed as cell growth at 100 uM after 48 hrs by SRB assay relative to control; details: MDA-MB-468, 48 h, read-out: Activity
OVCAR-4 [13] = assay: Growth inhibition of human OVCAR4 cells assessed as cell growth at 1 uM after 48 hrs by SRB assay relative to control; details: OVCAR-4, 48 h, read-out: Activity
MOLT-4 [14] = assay: Growth inhibition of human MOLT4 cells assessed as cell growth at 0.1 uM after 48 hrs by SRB assay relative to control; details: MOLT-4, 48 h, read-out: Activity
[15] = read-out: LC50 (the source's name)
[16] = read-out: pLC50 (the source's name) (converted)

## COc1ccc2c(c1)CCc1n[nH]c(-c3cc(OC)c(OC)c(OC)c3)c1-2
OVCAR-8
  growth at 100 µM: -38%
LOX IMVI
  growth at 10 µM: 7%
UACC-62
  growth at 10 µM: 10%
PC-3; read-out: GI50
  GI50: < 0.01 µM
PC-3; [15]
  CC50: > 100 µM
PC-3; read-out: TGI
  TGI: 17.8 µM
PC-3; read-out: pGI50 (converted)
  GI50: < 0.01 µM
PC-3; [16]
  CC50: > 100 µM
PC-3; read-out: pTGI (converted)
  TGI: 17.8 µM
SNB-19 [1]
  growth at 1 µM: 34%
MOLT-4 [2]
  growth at 1 µM: 36%
OVCAR-5; read-out: GI50
  GI50: 0.242 µM
OVCAR-5; read-out: LC50
  LC50: > 100 µM
OVCAR-5; read-out: TGI
  TGI: 38.8 µM
OVCAR-5; read-out: pGI50 (converted)
  GI50: 0.24 µM
OVCAR-5; read-out: pLC50 (converted)
  LC50: > 100 µM
OVCAR-5; read-out: pTGI (converted)
  TGI: 38.9 µM
CAKI-1 [3]; read-out: GI50
  GI50: < 0.01 µM
CAKI-1 [3]; read-out: LC50
  LC50 (concentration killing 50% of cells): > 100 µM
CAKI-1 [3]; read-out: TGI
  TGI: 24.8 µM
CAKI-1 [3]; read-out: pGI50 (converted)
  GI50: < 0.01 µM
CAKI-1 [3]; read-out: pLC50 (converted)
  LC50 (concentration killing 50% of cells): > 100 µM
CAKI-1 [3]; read-out: pTGI (converted)
  TGI: 24.5 µM
SK-MEL-2 [4]
  growth at 100 µM: -51%
SF-268 [5]
  growth at 0.01 µM: 39%
T47D
  growth at 1 µM: 69%
SN12C
  growth at 0.1 µM: 35%
OVCAR-4 [6]; read-out: GI50
  GI50: < 0.01 µM
OVCAR-4 [6]; read-out: LC50
  LC50: > 100 µM
OVCAR-4 [6]; read-out: TGI
  TGI: 56.5 µM
OVCAR-4 [6]; read-out: pGI50 (converted)
  GI50: < 0.01 µM
OVCAR-4 [6]; read-out: pLC50 (converted)
  LC50: > 100 µM
OVCAR-4 [6]; read-out: pTGI (converted)
  TGI: 56.2 µM
UO-31
  growth at 1 µM: 28%
IGROV-1
  growth at 10 µM: 20%
M14
  growth at 0.01 µM: 2%
NCI-H23
  growth at 100 µM: -42%
SNB-75 [7]
  growth at 100 µM: -30%
SF-268 [8]; read-out: GI50
  GI50: < 0.01 µM
SF-268 [8]; [15]
  CC50: > 100 µM
SF-268 [8]; read-out: TGI
  TGI: 26.8 µM
SF-268 [8]; read-out: pGI50 (converted)
  GI50: < 0.01 µM
SF-268 [8]; [16]
  CC50: > 100 µM
SF-268 [8]; read-out: pTGI (converted)
  TGI: 26.9 µM
A549
  growth at 100 µM: -26%
SK-MEL-2 [9]
  growth at 10 µM: 38%
HOP-92
  growth at 0.1 µM: 30%
SR
  growth at 1 µM: 16%
SNB-75 [10]
  growth at 10 µM: 22%
MDA-MB-231
  growth at 0.01 µM: 34%
CAKI-1 [11]
  growth at 10 µM: 13%
HCT-15
  growth at 100 µM: -41%
SNB-19 [12]; read-out: GI50
  GI50: < 0.01 µM
SNB-19 [12]; [15]
  CC50: > 100 µM
SNB-19 [12]; read-out: TGI
  TGI: 46.3 µM
SNB-19 [12]; read-out: pGI50 (converted)
  GI50: < 0.01 µM
SNB-19 [12]; [16]
  CC50: > 100 µM
SNB-19 [12]; read-out: pTGI (converted)
  TGI: 46.8 µM
MDA-MB-468
  growth at 100 µM: -39%
OVCAR-4 [13]
  growth at 1 µM: 40%
MOLT-4 [14]
  growth at 0.1 µM: 35%
